Laboratory results reported in paper PMC6010102, “N-thioalkylcarbazoles derivatives as new anti-proliferative agents: synthesis, characterisation and molecular mechanism evaluation” (Journal of Enzyme Inhibition and Medicinal Chemistry, 2018).

System: Cytochrome c
Assay: Cytochrome c immunofluorescence in HeLa cells
Type: cell-based, human
Conditions: concentration equal to IC50, 24 h
Protocol: Cells were grown on glass coverslips in full media, then serum-deprived for 24 h and exposed to compound to test, at the indicated time. Then, they were PBS-washed, fixed with cold methanol (15 min/−20 °C) and washed three times (10 min/room temperature) with cold PBS containing 0.01% TritonX-100. After incubation (30 min/room temperature) with blocking solution (PBS, 2% BSA), they were incubated with primary antibody diluted in blocking solution (4 °C/overnight). The mouse anti-cytochrome c (556433) was purchased from BD Biosciences (Franklin Lakes, NJ) and used at 1:100 dilution. Coverslips were then washed three times with PBS, then fixed cells were incubated with the secondary antibody Alexa Fluor® 568 conjugate goat-anti-mouse (1:500, Thermo Fisher Scientific, Waltham, MA). Nuclei were stained using DAPI (Sigma-Aldrich, Milan, Italy) for 10 min at a concentration of 0.2 µg/mL then washed three times with PBS. Fluorescence was detected using a fluorescence microscope (Leica DM 6000 Leica, Frankfurt am Main, Germany). LASX software was used to acquire and process all images.

Cc1ccc(C)c2c1c1cc(Br)ccc1n2CCCCCCCS [5c, 7-(6-Bromo-1,4-dimethyl-9H-carbazol-9-yl)-heptane-1-thiol] was tested, and the Cytochrome c localisation was “determines the release of Cytochrome c from mitochondria to the cytosol”.
